From paper PMC3608532, “Characterization of a Single-Chain Variable Fragment Recognizing a Linear Epitope of Aβ: A Biotechnical Tool for Studies on Alzheimer’s Disease?” (PLoS ONE, 2013) come the findings set out here.

One assay has as its target Aβ(2-8). The experiment in a line: SPR binding kinetics to immobilized Aβ(2-8). As for the experimental part: (§1) Binding kinetics were determined by SPR using a Biacore™ X (GE Healthcare, UK). Synthetic Aβ peptides were dissolved in 10 mM NaAc, pH 4.0. The CM5 sensor chip surface (GE Healthcare, UK) was activated using N-ethyl-N′-3 […] carbodiimide (EDC) and N-hydroxysuccinimide (NHS) chemistry followed by 2-(2-pyridinyldithio)ethaneamine hydrochloride (PDEA), in order to introduce a reactive thiol group. Aβ was coupled via the C-terminal cysteine to the chip at a flow rate of 5 µl/min, and the remaining active groups were blocked by injecting cysteine. The immobilization procedure was performed according to manufacturer’s recommendation. All kinetic analyses were performed at a flow rate of 20 µl/min in PBS. Varying concentrations of scFv-IC16 (10 to 5000 nM) and IC16 (10 to 1000 nM) were injected. […] When required, the surface was regenerated by injecting 20 µl 50 mM glycine, pH 11.0. The data evaluation was performed using Biaevaluation Software 4.1.1. ScFv-IC16 data were fitted according to the Langmuir 1∶1 binding model, whereas IC16 data were fitted according to the bivalent binding model. Standard errors of equilibrium dissociation constants (KD) were calculated using standard errors of the corresponding association and dissociation rate constants.

In a further assay the target is Aβ(3-8). Kind of assay: SPR binding kinetics to immobilized Aβ(3-8). As for the experimental part:
as §1
Background: Surface plasmon resonance follows binding to a sensor surface in real time, without labels.

The subject of another assay is Aβ(pE3-8). Kind of assay: SPR binding kinetics to immobilized Aβ(pE3-8). The conditions noted are these: SPR; two N-terminal residues truncated, E3 modified into pyroE3. As for the experimental part: as §1
The next assay has as its system Aβ(1-42) monomers. The experiment in a line: ELISA binding to Aβ(1-42) monomers. Further details: species or system human. To be noted: 250 ng/well. As for the experimental part: 1 mg of Aβ(1-42) or N-terminally/C-terminally biotinylated Aβ(1-42) was dissolved in 1 ml 1,1,1,3,3,3-hexafluorosiopropanol (HFIP) and incubated overnight at room temperature. Afterwards, Aβ(1-42) was mixed in the favored ratio with N-terminally/C-terminally biotinylated Aβ(1-42) and aliquoted. HFIP was evaporated using a SpeedVac (Concentrator 5301, Eppendorf, Germany) at room temperature for 30 min. To evaporate remaining HFIP, the sample was incubated overnight at room temperature with an open lid.
The preparation of Aβ(1-42) monomers and oligomers was carried out by size exclusion chromatography (SEC) as already described by Johansson et al with minor modifications. 250 µg of Aβ peptide was dissolved in 130 µl SEC buffer (50 mM NaPi, pH 7.4; 150 mM NaCl; 0.6% Tween-20) and briefly centrifuged (1 min, 16 100×g, room temperature) to remove insoluble fibrillar material. 100 µl of the supernatant was applied on a Superdex75 10/300 column (GE Healthcare, UK) connected to an Äkta purifier system (GE Healthcare, UK). The sample was eluted at a flow rate of 0.6 ml per min at room temperature and detected at wavelengths of 214, 250 and 278 nm. […] The concentration of the Aβ preparations was determined using the Micro BCA Protein Assay Kit (Thermo Scientific, Waltham, MA, USA). […] The samples were measured at a wavelength of 570 nm with a Polarstar Optima plate reader (BMG, Ortenberg, Germany). […]
In general terms: In an ELISA, binding on a coated surface is turned into a signal by an enzyme label.

[1] abbreviates: SPR Biacore X, CM5 chip, PBS, 25°C, global fit, scFv-IC16 Langmuir 1:1 model, IC16 bivalent model.
Where [2] appears, read: SPR Biacore X, CM5 chip, PBS, 25°C, global fit, scFv-IC16 Langmuir 1:1 model, IC16 bivalent model, ± standard error, SEM.

As to “scFv-IC16: single-chain variable fragment (VH-(Gly4Ser)3-VL, His6- and Myc-tag) derived from Aβ binding monoclonal antibody IC16, expressed in E. coli”, the Kd was 112 nM at Aβ(2-8) (setting [1]); roughly 112 nM at Aβ(2-8) (SPR, Langmuir 1:1 binding model); 5.25 µM on Aβ(3-8) (setting [1]); greater than 5 µM at Aβ(3-8) (SPR, A2 of Aβ truncated). Also, the k off in the assay with Aβ(2-8) (setting [2]) is given as 7.65±0.03×10^−3 s^-1; in the assay with Aβ(3-8) (setting [2]) it was 43.9±0.3×10^−3 s^-1. Further, the results for the k on in the assay on Aβ(2-8) (setting [2]) and with Aβ(3-8) (setting [2]) were 6.84±0.03×10^4 M^-1 s^-1 and 8.36±0.5×10^3 M^-1 s^-1, respectively. Moreover, the “binding to Aβ(pE3-8)” value with Aβ(pE3-8) is on record as “no binding could be detected”. Also, the “ELISA binding to Aβ monomers, C-terminal biotin tag” value in the assay on Aβ(1-42) monomers (100% C-terminally biotinylated monomers, p = 0.038 versus N-bio oligomers) is “very similar to Aβ oligomers”. For the same substance, in the assay on Aβ(1-42) monomers (100% N-terminally biotinylated monomers on streptavidin plate), the “ELISA binding to Aβ monomers, N-terminal biotin tag” value is given as “not detected”.
